# Results published in EP4227307A1 (Genzyme Corporation, priority 2022, dated 2023).
# Where a name gives a salt, the structure may show the parent alone.
# Target: T1, human recombinant 6His-Nterm SHP2 full-length (Thr2-Arg593) (Homo sapiens, UniProt Q06124)
# T1 construct: 6His-Nterm SHP2 full-length (Thr2-Arg593, R&D system); 6His (N); purchased R&D system
# T1 sequence (Q06124 2-593): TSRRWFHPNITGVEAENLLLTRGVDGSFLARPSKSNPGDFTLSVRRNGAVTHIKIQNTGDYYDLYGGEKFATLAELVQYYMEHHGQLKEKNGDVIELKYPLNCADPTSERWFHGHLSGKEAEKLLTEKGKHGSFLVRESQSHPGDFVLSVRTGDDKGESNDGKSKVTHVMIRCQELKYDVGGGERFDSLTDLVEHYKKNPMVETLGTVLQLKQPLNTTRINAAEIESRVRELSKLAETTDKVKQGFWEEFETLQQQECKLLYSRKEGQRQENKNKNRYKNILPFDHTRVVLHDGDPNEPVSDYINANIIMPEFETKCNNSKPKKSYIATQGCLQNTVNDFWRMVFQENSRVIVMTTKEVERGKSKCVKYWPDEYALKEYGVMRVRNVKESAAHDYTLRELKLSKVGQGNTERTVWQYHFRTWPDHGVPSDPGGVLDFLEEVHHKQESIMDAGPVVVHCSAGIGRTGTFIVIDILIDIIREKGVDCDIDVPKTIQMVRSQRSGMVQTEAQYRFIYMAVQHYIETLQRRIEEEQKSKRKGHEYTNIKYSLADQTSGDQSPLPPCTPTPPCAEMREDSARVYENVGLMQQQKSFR
# Assay: SHP2 Phosphatase Assay (DiFMUP fluorescence)
# Type: biochemical
# Conditions: SHP2 0.2 nM pre-incubated with 100 nM bi-phosphorylated activating peptide; compound 1000-0.05 nM, 30 min pre-incubation; DiFMUP 20 µM, 45 min, room temperature; 10-concentration dose-response
# Summary of the method: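 SHP2 (0.2 nM) preactivated ≥10 min with 100 nM bis-phosphorylated peptide, then 30 min with compound (10 concentrations, 1000–0.05 nM) at room temperature, pH 7.2 HEPES buffer with DTT. DiFMUP (20 µM, added solution) reacted 45 min, pervanadate-stopped; fluorescence 350/450 nm. IC50 by 4-parameter logistic fit.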
row,Compound,IC50 [nM]
1,"COc1cccc(-c2c(C)nc(N3CCC4(CC3)Cc3ncccc3[C@H]4N)c3ccnn23)c1Cl [Compound 3, (5S)-1'-(7-(2-chloro-3-methoxyphenyl)-6-methylpyrazolo[1,5-a]pyrazin-4-yl)-5,7-dihydrospiro [cyclopenta[b]pyridine-6,4'-piperidin] -5-amine hydrochloride]",3
2,"Cc1nc(N2CCC3(CC2)Cc2ncccc2[C@H]3N)c2ccnn2c1-c1ccc2ncccc2c1 [Compound 202, (5S)-1'-[6-methyl-7-(6-quinolyl)pyrazolo[1,5-a]pyrazin-4-yl]spiro[5,7-dihydrocyclopenta[b]pyridine-6,4'-piperidine]-5-amine]",26
3,"Cc1nc(N2CCC3(CC2)Oc2ccccc2[C@H]3N)c2ccnn2c1-c1ccc(F)c2cc[nH]c12 [Compound 18, (3R)-1'-[7-(4-fluoro-1H-indol-7-yl)-6-methyl-pyrazolo[1,5-a]pyrazin-4-yl] spiro [3H-benzofuran-2,4'-piperidine] -3 - amine]",132
4,"Cc1cc2c(cn1)CC1(CCN(c3nc(C)c(-c4ccnc(C)c4Cl)n4nccc34)CC1)[C@@H]2N [Compound 112, (5S)-1'-[7-(3-chloro-2-methyl-4-pyridyl)-6-methyl-pyrazolo[1,5-a]pyrazin-4-yl]-3-methyl-spiro[5,7-dihydrocyclopenta[c]pyridine-6,4'-piperidine]-5-amine hydrochloride]",5
5,"COc1ccc2c(c1)[C@@H](N)C1(CCN(c3nc(C)c(-c4cc(C(F)(F)F)nn4C)n4nccc34)CC1)C2 [Compound 127, (1S)-6-methoxy-1'-[6-methyl-7-[2-methyl-5-(trifluoromethyl)pyrazol-3-yl]pyrazolo[1,5-a]pyrazin-4-yl]spiro[indane-2,4'-pipendine]-1-amine hydrochloride]",22
6,"Cc1nccc(-c2c(C)nc(N3CCC4(CC3)Cc3ccccc3[C@H]4N)c3ccnn23)c1Cl [Compound 25, (S)-1'-(7-(3-chloro-2-methylpyridin-4-yl)-6-methylpyrazolo[1,5-a]pyrazin-4-yl)-1,3-dihydrospiro[indene-2,4'-piperidin]-1-amine hydrochloride]",6
7,"COc1ccc2c(c1)CC1(CCN(c3nc(C)c(-c4cnn(C)c4C)n4nccc34)CC1)[C@@H]2N [Compound 62, (1S)-1'-[7-(1,5-dimethylpyrazol-4-yl)-6-methyl-pyrazolo[1,5-a]pyrazin-4-yl]-5-methoxy-spiro[indane-2,4'-piperidine]-1-amine]",17
8,"Cc1nc(N2CCC3(CC2)Cc2ccc(C#N)cc2[C@@H]3N)c2ccnn2c1-c1cnn(C)c1C (single isomer, unassigned) [Compound 212]",288
9,"Cc1nc(N2CCC3(CC2)Cc2ccc(F)cc2[C@H]3N)c2ccnn2c1-c1cnn(C)c1C [Compound 103, (1S)-1'-[7-(1,5-dimethylpyrazol-4-yl)-6-methyl-pyrazolo[1,5-a]pyrazin-4-yl]-6-fluoro-spiro [indane-2,4'-piperidine]-1-amine hydrochloride]",12
10,"Cc1nccc(-c2c(C)nc(N3CCC4(CC3)Cc3cc(F)ccc3[C@H]4N)c3ccnn23)c1Cl [Compound 217, (1S)-1'-[7-(3-Chloro-2-methyl-4-pyridyl)-6-methyl-pyrazolo[1,5-a]pyrazin-4-yl]-5-fluoro-spiro[indane-2,4'-piperidine]-1-amine formate]",8
11,"Cc1nccc(-c2c(C)nc(N3CCC4(CC3)Cc3ccc(F)cc3[C@H]4N)c3ccnn23)c1Cl [Compound 91, (1S)-1'-[7-(3-chloro-2-methyl-4-pyridyl)-6-methyl-pyrazolo[1,5-a]pyrazin-4-yl]-6-fluoro-spiro[indane-2,4'-piperidine]-1-amine hydrochloride]",19
12,"Cc1nc(N2CCC3(CC2)Cc2ncccc2[C@H]3N)c2ccnn2c1-c1cscn1 [Compound 160, (5S)-1'-(6-methyl-7-thiazol-4-yl-pyrazolo[1,5-a]pyrazin-4-yl)spiro[5,7-dihydrocyclopenta[b]pyridine-6,4'-piperidine]-5-amine hydrochloride]",63
13,"Cc1nc(N2CCC3(CC2)Cc2c(F)cccc2[C@H]3N)c2ccnn2c1-c1ccccc1F [Compound 93, (1S)-4-fluoro-1'-[7-(2-fluorophenyl)-6-methyl-pyrazolo[1,5-a]pyrazin-4-yl]spiro[indane-2,4'-piperidine]-1-amine hydrochloride]",46
14,"COc1ccc2c(c1)[C@@H](N)C1(CCN(c3nc(C)c(-c4ccccc4F)n4nccc34)CC1)C2 [Compound 11, (1S)-1'-[7-(2-fluorophenyl)-6-methyl-pyrazolo[1,5-a]pyrazin-4yl]-6-methoxy-spiro[indane-2,4'-piperidine]-1-amine hydrochloride]",23
15,"Cc1nc(N2CCC3(CC2)Cc2ccccc2[C@H]3N)c2ccnn2c1-c1cnoc1C [Compound 150, (1S)-1'-[6-methyl-7-(5-methylisoxazol-4-yl)pyrazolo[1,5-a]pyrazin-4-yl]spiro[indane-2,4'-piperidine]-1-amine]",140

# Next, values leading:
row,IC50 [nM],Compound
1,4,"Cc1nc(N2CCC3(CC2)Cc2ncccc2[C@H]3N)c2ccnn2c1-c1ccsc1Cl [Compound 54, (5S)-1'-[7-(2-chloro-3-thienyl)-6-methyl-pyrazolo[1,5-a]pyrazin-4-yl]spiro[5,7-dihydrocyclopenta[b]pyridine-6,4'-piperidine]-5-amine]"
2,24,"Cc1ccccc1-c1c(C)nc(N2CCC3(CC2)Cc2ncccc2[C@H]3N)c2ccnn12 [Compound 52, (5S)-1'-[6-methyl-7-(o-tolyl)pyrazolo[1,5-a]pyrazin-4-yl]spiro[5,7-dihydrocyclopenta[b]pyridine-6,4'-piperidine]-5-amine]"
3,154,"Cc1nn(C)cc1-c1c(C)nc(N2CCC3(CC2)Cc2ncccc2[C@H]3N)c2ccnn12 [Compound 47, (5S)-1'-[7-(1,3-dimethylpyrazol-4-yl)-6-methyl-pyrazolo[1,5-a]pyrazin-4-yl]spiro [5,7-dihydrocyclopenta[b]pyridine-6,4'-piperidine]-5-amine]"
4,10,"Cc1nc(N2CCC3(CC2)Cc2ncccc2[C@H]3N)c2ccnn2c1-c1ccnc(C2CC2)c1Cl [Compound 40, (5S)-1'-[7-(3-chloro-2-cyclopropyl-4-pyridyl)-6-methyl-pyrazolo[1,5-a]pyrazin-4-yl]spiro[5,7-dihydrocyclopenta[b]pyridine-6,4'-piperidine]-5-amine]"
5,12,"Cc1nc(N2CCC3(CC2)Cc2ncccc2[C@H]3N)c2ccnn2c1-c1ccc(C#N)cc1F [Compound 206, 3-fluoro-4-[6-methyl-4-[(5S)-5-aminospiro[5,7-dihydrocyclopenta[b]pyridine-6,4'-piperidine]-1'-yl]pyrazolo[1,5-a]pyrazin-7-yl]benzonitrile]"
6,3,"Cc1nc(N2CCC3(CC2)Cc2ncccc2[C@H]3N)c2ccnn2c1-c1ccc(Cl)s1 [Compound 53, (5S)-1'-[7-(5-chloro-2-thienyl)-6-methyl-pyrazolo[1,5-a]pyrazin-4-yl]spiro[5,7-dihydrocyclopenta[b]pyridine-6,4'-piperidine]-5-amine]"
7,2,"Cc1nc(N2CCC3(CC2)Cc2ncccc2[C@H]3N)c2ccnn2c1-c1cccc(Cl)c1Cl [Compound 192, (5S)-1'-[7-(2,3-dichlorophenyl)-6-methyl-pyrazolo[1,5-a]pyrazin-4-yl]spiro[5,7-dihydrocyclopenta[b]pyridine-6,4'-piperidine]-5-amine]"
8,6,"Cc1nc(N2CCC3(CC2)Cc2ncccc2[C@H]3N)c2ccnn2c1-c1cccc(F)c1Cl [Compound 2, (5S)-1'-(7-(2-chloro-3-fluorophenyl)-6-methylpyrazolo[1,5-a]pyrazin-4-yl)-5,7-dihydrospiro[cyclopenta[b]pyridine-6,4'-piperidin]-5-amine]"
9,7,"Cc1nc(N2CCC3(CC2)Cc2ncccc2[C@H]3N)c2ccnn2c1-c1cccc(F)c1C [Compound 197, (5S)-1'-[7-(3-fluoro-2-methyl-phenyl)-6-methyl-pyrazolo[1,5-a]pyrazin-4-yl]spiro[5,7-dihydrocyclopenta[b]pyridine-6,4'-piperidine]-5-amine]"
10,18,"Cc1nc(N2CCC3(CC2)Cc2ncccc2[C@H]3N)c2ccnn2c1-c1cncc(F)c1 [Compound 179, (5S)-1'-[7-(5-fluoro-3-pyridyl)-6-methyl-pyrazolo[1,5-a]pyrazin-4-yl]spiro[5,7-dihydrocyclopenta[b]pyridine-6,4'-piperidine]-5-amine]"
11,2,"Cc1ccc(-c2c(C)nc(N3CCC4(CC3)Cc3ncccc3[C@H]4N)c3ccnn23)c(F)c1 [Compound 186, (5S)-1'-[7-(2-fluoro-4-methyl-phenyl)-6-methyl-pyrazolo[1,5-a]pyrazin-4-yl]spiro[5,7-dihydrocyclopenta[b]pyridine-6,4'-piperidine]-5-amine]"
